≈ marks a conversion by molar mass, not a printed value. Like-named read-outs stand apart in the source and are kept apart here.
Tests used:
[1] = system: M. avium; test: MIC against M. avium; type: cell-based; conditions: Mycobacterium avium, read-out: M. avium MIC
[2] = system: M. abs; test: MIC against M. abs; type: cell-based, Mycobacterium abscessus; conditions: Mycobacteroides abscessus, read-out: M. abs MIC
[3] = system: M. tb V4207/DS; test: microbe, parasite or virus in culture; type: cell-based; conditions: Mycobacterium tuberculosis, read-out: M. tb MIC V4207/DS
[4] = system: Vero cells; test: Cytotoxicity on Vero cells; type: cell-based; conditions: for SI (selectivity index): SI = IC50(Vero)/MIC
[5] = Chlorocebus sabaeus, Vero, read-out: IC50 Vero cells, cytotoxicity, Vero cells
[6] = read-out: IC50 Vero cells, cytotoxicity, Vero cells

SMILES	MIC [1] [µM]	MIC [2] [µM]	MIC [3] [µM]	SI (selectivity index) [4]	IC50 [4, 5] [µM]	IC50 [4, 6] [µM]
O=C(NC12CC3CC(CC(C3)C1)C2)c1cc(=O)c2c(Br)cccc2[nH]1 [8i, N-(1-Adamantanyl)-5-bromo-4-oxo-1,4-dihydroquinoline-2-carboxamide]	> 159	> 159	9.97 (≈ 4 µg/mL)	4	–	–
O=C(NC1CCCCCCC1)c1ccc2ccccc2c1 [13c, N-Cyclooctyl-2-naphthamide]	> 227	> 227	7.11 (≈ 2 µg/mL)	≥32	≥ 227	–
O=C(NC12CC3CC(CC(C3)C1)C2)c1ccc2ccccc2c1 [13d, N-(1-Adamantanyl)-2-naphthamide]	> 209	> 209	6.55 to 13.1 (≈ 2 to 4 µg/mL)	≥64	≥ 227	≥ 419
O=C(Nc1nc(-c2ccc(Cl)cc2Cl)cs1)C12CC3CC(CC(C3)C1)C2 [18b, N-(4-(2,4-Dichlorophenyl)thiazol-2-yl)adamantane-1-carboxamide]	> 157	> 157	9.82 (≈ 4 µg/mL)	1	9.82 to 39.9	9.82
